Results as given in US20240270821A1, “GIP/GLP1/GCG TRI-RECEPTOR AGONISTS AND USES THEREOF” (priority 2023, published 2024).
Where two headings read alike, the source gives them in different places. Starred links: 1 amine or outer side, 2 acyl side, 3 side chain; linkers in the order of their positions; H or OH if unused. Non-standard residues stand in square brackets, D forms with d. Groups on a side chain read outwards from the residue. No end group written: not given here. *: point of attachment. C20 diacid = O=C(O)CCCCCCCCCCCCCCCCCCC(=O)*; C18 diacid = O=C(O)CCCCCCCCCCCCCCCCC(=O)*; γGlu = O=C(O)[C@H](CCC(=O)[*:2])N[*:1]; 4Pal = N[C@@H](Cc1ccncc1)C(=O)O; αMeL = CC(C)C[C@](C)(N)C(=O)O; Orn = NCCC[C@H](N)C(=O)O; Dap = NC[C@H](N)C(=O)O; AEEA = NCCOCCOCC(=O)O; Aib = CC(C)(N)C(=O)O

Columns and labels:
Format in all cases: cell-based
hGcgR = hGcgR (Homo sapiens, UniProt P47871); experiment: Functional cAMP activation in the presence of 0.1% casein (no HSA);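 further: intracellular cAMP rise after 30 min at 37 °C, read by HTRF against a cAMP standard curve, scaled from buffer only (0%) to maximal control ligand response (100%)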
hGcgR, sequence (P47871 26-477): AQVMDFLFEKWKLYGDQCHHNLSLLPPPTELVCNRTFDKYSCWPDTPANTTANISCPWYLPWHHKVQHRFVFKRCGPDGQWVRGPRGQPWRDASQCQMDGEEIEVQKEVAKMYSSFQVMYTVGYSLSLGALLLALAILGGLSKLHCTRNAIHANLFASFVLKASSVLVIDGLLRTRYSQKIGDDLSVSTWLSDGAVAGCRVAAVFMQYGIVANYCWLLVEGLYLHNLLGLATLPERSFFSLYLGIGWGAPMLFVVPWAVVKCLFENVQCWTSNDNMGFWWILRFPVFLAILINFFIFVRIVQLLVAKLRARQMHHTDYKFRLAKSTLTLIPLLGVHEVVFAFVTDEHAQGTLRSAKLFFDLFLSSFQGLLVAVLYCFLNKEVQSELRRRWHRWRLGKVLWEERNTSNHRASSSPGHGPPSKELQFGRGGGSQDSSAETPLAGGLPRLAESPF

hGLP-1R [1] = target: T1, hGLP-1R (Homo sapiens, UniProt P43220); experiment: as above;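 further: intracellular cAMP rise after 30 min at 37 °C read by HTRF, normalized between buffer only (0%) and maximal control ligand (100%), four-parameter variable-slope fit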
T1 sequence (P43220 24-463): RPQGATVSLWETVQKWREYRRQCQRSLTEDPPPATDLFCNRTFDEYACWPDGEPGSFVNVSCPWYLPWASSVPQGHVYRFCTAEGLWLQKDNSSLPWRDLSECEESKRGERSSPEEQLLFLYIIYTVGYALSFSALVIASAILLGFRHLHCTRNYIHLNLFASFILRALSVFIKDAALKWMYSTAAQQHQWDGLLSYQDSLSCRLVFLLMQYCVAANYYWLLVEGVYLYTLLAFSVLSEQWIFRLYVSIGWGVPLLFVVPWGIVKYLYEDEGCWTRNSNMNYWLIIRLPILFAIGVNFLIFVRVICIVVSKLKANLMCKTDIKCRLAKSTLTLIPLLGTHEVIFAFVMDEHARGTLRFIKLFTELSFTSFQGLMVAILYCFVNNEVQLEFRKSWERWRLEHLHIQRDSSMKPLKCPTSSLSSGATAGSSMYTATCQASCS

hGIPR [2] = target: T2, hGIPR (Homo sapiens, UniProt P48546); experiment: Functional cAMP activity in the presence of 1% HSA
T2 sequence (P48546 22-466): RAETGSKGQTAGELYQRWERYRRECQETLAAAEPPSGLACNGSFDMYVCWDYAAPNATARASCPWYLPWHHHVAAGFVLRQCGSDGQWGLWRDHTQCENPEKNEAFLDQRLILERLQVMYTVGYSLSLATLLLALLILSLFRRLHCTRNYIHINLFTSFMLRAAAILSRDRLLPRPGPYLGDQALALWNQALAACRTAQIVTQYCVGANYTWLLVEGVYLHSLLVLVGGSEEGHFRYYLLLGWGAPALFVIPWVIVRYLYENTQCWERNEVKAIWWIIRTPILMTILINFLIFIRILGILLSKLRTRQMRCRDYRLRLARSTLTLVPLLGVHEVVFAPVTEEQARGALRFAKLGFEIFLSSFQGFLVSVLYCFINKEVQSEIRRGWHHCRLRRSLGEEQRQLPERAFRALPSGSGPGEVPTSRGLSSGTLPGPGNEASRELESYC

human GcgR = human GcgR (Homo sapiens, UniProt P47871); experiment: Functional cAMP activity in the presence of 1% HSA
human GcgR, sequence (P47871 26-477): as the sequence (P47871 26-477) above

human GLP1-R = human GLP1-R (Homo sapiens, UniProt P43220); experiment: GLP1-R internalization assay in HEK293 cells; conditions: for Internalization % TOP: normalized to maximum concentration of GLP-1 (100%)
human GLP1-R, sequence (P43220 24-463): as the sequence (P43220 24-463) above

hGLP-1R [3] = target: T1, hGLP-1R; experiment: Functional cAMP activity in the presence of 1% HSA
hGIPR [4] = target: T2, hGIPR; experiment: Functional cAMP activation in the presence of 0.1% casein (no HSA);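 on Relative cAMP EC50, hGIPR: intracellular cAMP rise after 30 min at 37 °C read by HTRF against a standard curve, scaled between buffer alone (0%) and top control ligand concentration (100%), four-parameter fit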;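 on Relative cAMP EC50, hGLP-1R: intracellular cAMP rise after 30 min at 37 °C read by HTRF, normalized between buffer only (0%) and maximal control ligand (100%), four-parameter variable-slope fit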
[5] = in the presence of 0.1% casein (no HSA), geometric mean, read-out: Relative cAMP EC50, hGcgR
[6] = in the presence of 0.1% casein (no HSA), geometric mean, read-out: Relative cAMP EC50, hGLP-1R
[7] = HEK293 cells expressing SNAP-GLP-1R, read-out: GLP1R Internalization EC50
[8] = read-out: cAMP Rel EC50, hGLP-1R
[9] = in the presence of 0.1% casein (no HSA), geometric mean, read-out: Relative cAMP EC50, hGIPR

Molecule | EC50 (hGcgR; [5]) [nM] | EC50 (hGLP-1R [1]; [6]) [nM] | EC50 (hGIPR [2]; read-out: cAMP Rel EC50, hGIPR) [nM] | EC50 (human GcgR; read-out: cAMP Rel EC50, hGcgR) [nM] | EC50 (human GLP1-R; [7]) [nM] | Internalization % TOP (human GLP1-R) [%] | EC50 (hGLP-1R [3]; [8]) [nM] | EC50 (hGIPR [4]; [9]) [nM] | EC50 (hGcgR) [nM] | EC50 (hGLP-1R [1]) [nM] | EC50 (hGIPR [2]) [nM] | EC50 (human GcgR) [nM] | EC50 (human GLP1-R) [nM] | EC50 (hGLP-1R [3]) [nM] | EC50 (hGIPR [4]) [nM]
H-Y[Aib]QGTFTSDFSK[αMeL]LDKK([AEEA-γGlu-C20 diacid])AQ[Aib]AFIEYLLEGGPSSGAPPPGGS-NH2 [Example 18] | 2.7 | 2.31 | 59.6 | 1210 | 91.8 | 74.1 | 561 | 0.337 |  |  |  |  |  |  | 
H-Y[Aib]QGTFTSDFS[Orn][αMeL]LDKK([AEEA-γGlu-C18 diacid])AQ[Aib]AFIEYLIE[Aib]GESSGAPPPSGS-NH2 [Example 218] | 7.89 | 0.76 | 15 | 1480 | 80.5 | 35 | 152 | 0.0853 |  |  |  |  |  |  | 
H-Y[Aib]QGTFTSDYS[Dap][αMeL]LDKK([AEEA-γGlu-C18 diacid])AQ[Aib]AFIEYLLEGGESSGAPPPSGS-NH2 [Example 360] | 5.28 | 5.86 | 78.3 | 1470 | 214 | 66.1 | 989 | 0.45 |  |  |  |  |  |  | 
H-Y[Aib]QGTFTSDFSR[αMeL]LDKK([AEEA-γGlu-C18 diacid])AQ[Aib]AFIEYLLE[Aib]GPSSGAPPPSGS-NH2 [Example 79] |  |  |  |  |  | 45.3 |  |  | 3.08 | 1.8 | 14.3 | 903 | 56.6 | 437 | 0.0773
H-Y[Aib]QGTFTSD[4Pal]SK[αMeL]LDKK([AEEA-γGlu-C18 diacid])AQ[Aib]AFIEYLIE[Aib]GESSGAPPPSGS-NH2 [Example 280] | 8.63 | 0.95 | 15.6 | 1600 | 39.4 | 74.9 | 171 | 0.105 |  |  |  |  |  |  | 
Y[Aib]QGTFTSDFS[Orn][αMeL]LDKK([AEEA-γGlu-C18 diacid])AQ[Aib]AFIEYLLEGGPSSGAPPPSEG-NH2 [Example 50] | 4.25 | 4.65 | 69.6 | 1040 | 30.1 | 31.1 | 1110 | 0.29 |  |  |  |  |  |  | 
H-Y[Aib]QGTFTSDFSK[αMeL]LDKK([AEEA-γGlu-C20 diacid])AQ[Aib]AFIEYLLAGGPSSGEPPPSGE[AEEA]-NH2 [Example 33] | 7.04 | 1.71 | 70.7 | 1310 | 106 | 64.6 | 436 | 0.285 |  |  |  |  |  |  | 
H-Y[Aib]QGTFTSDFS[Orn][αMeL]LDKK([AEEA-γGlu-C18 diacid])AQ[Aib]AFIEYLLAGGPSSGAPPPSGT-NH2 [Example 87] | 8.51 | 2.75 | 12.8 | 1110 | 61.8 | 45.4 | 290 | 0.128 |  |  |  |  |  |  | 
CC[C@H](C)[C@H](NC(=O)[C@H](Cc1ccccc1)NC(=O)[C@H](C)NC(=O)C(C)(C)NC(=O)[C@H](CCC(N)=O)NC(=O)[C@H](C)NC(=O)[C@H](CCCCNC(=O)COCCOCCNC(=O)COCCOCCNC(=O)CC[C@H](NC(=O)CCCCCCCCCCCCCCCCCCC(=O)O)C(=O)O)NC(=O)[C@H](CCCCN)NC(=O)[C@H](CC(=O)O)NC(=O)[C@H](CC(C)C)NC(=O)[C@](C)(CC(C)C)NC(=O)[C@H](CCCCN)NC(=O)[C@H](CO)NC(=O)[C@H](Cc1ccccc1)NC(=O)[C@H](CC(=O)O)NC(=O)[C@H](CO)NC(=O)[C@@H](NC(=O)[C@H](Cc1ccccc1)NC(=O)[C@@H](NC(=O)CNC(=O)[C@H](CCC(N)=O)NC(=O)C(C)(C)NC(=O)[C@@H](N)Cc1ccc(O)cc1)[C@@H](C)O)[C@@H](C)O)C(=O)N[C@@H](CCC(=O)O)C(=O)N[C@@H](Cc1ccc(O)cc1)C(=O)N[C@@H](CC(C)C)C(=O)N[C@@H](CC(C)C)C(=O)N[C@@H](CCC(=O)O)C(=O)NC(C)(C)C(=O)NCC(=O)N1CCC[C@H]1C(=O)N[C@@H](CO)C(=O)N[C@@H](CO)C(=O)NCC(=O)N[C@@H](C)C(=O)N1CCC[C@H]1C(=O)N1CCC[C@H]1C(=O)N1CCC[C@H]1C(=O)NCC(=O)N[C@@H](CCC(=O)O)C(=O)NCC(N)=O [Example 55] |  |  |  |  |  | 70.7 |  |  | 5.2 | 1.96 | 27.8 | 960 | 79.5 | 479 | 0.0856
H-Y[Aib]QGTFTSDFS[Orn][αMeL]LDKK([AEEA-AEEA-γGlu-C18 diacid])AQ[Aib]AFIEYLLE[dA]GPSSGEPPPSGE-NH2 [Example 117] | 4.75 | 6.4 | 29.9 | 867 | 45.5 | 51 | 524 | 0.267 |  |  |  |  |  |  | 
CC[C@H](C)[C@H](NC(=O)[C@H](Cc1ccccc1)NC(=O)[C@H](C)NC(=O)C(C)(C)NC(=O)[C@H](CCC(N)=O)NC(=O)[C@H](C)NC(=O)[C@H](CCCCNC(=O)COCCOCCNC(=O)CC[C@H](NC(=O)CCCCCCCCCCCCCCCCC(=O)O)C(=O)O)NC(=O)[C@H](CCCCN)NC(=O)[C@H](CC(=O)O)NC(=O)[C@H](CC(C)C)NC(=O)[C@](C)(CC(C)C)NC(=O)[C@H](CCCCN)NC(=O)[C@H](CO)NC(=O)[C@H](Cc1ccccc1)NC(=O)[C@H](CC(=O)O)NC(=O)[C@H](CO)NC(=O)[C@@H](NC(=O)[C@H](Cc1ccccc1)NC(=O)[C@@H](NC(=O)CNC(=O)[C@H](CCC(N)=O)NC(=O)C(C)(C)NC(=O)[C@@H](N)Cc1ccc(O)cc1)[C@@H](C)O)[C@@H](C)O)C(=O)N[C@@H](CCC(=O)O)C(=O)N[C@@H](Cc1ccc(O)cc1)C(=O)N[C@@H](CC(C)C)C(=O)N[C@@H](CC(C)C)C(=O)N[C@@H](C)C(=O)NCC(=O)NCC(=O)N1CCC[C@H]1C(=O)N[C@@H](CO)C(=O)N[C@@H](CO)C(=O)NCC(=O)N[C@@H](CCC(=O)O)C(=O)N1CCC[C@H]1C(=O)N1CCC[C@H]1C(=O)N1CCC[C@H]1C(=O)N[C@@H](CO)C(=O)N[C@@H](CCC(=O)O)C(=O)NCC(N)=O [Example 22] | 5.42 | 2.94 | 81 | 532 | 41.9 | 64.7 | 592 | 0.246 |  |  |  |  |  |  | 
